These results are taken from patent publication US6436421B1, “Pesticide compositions” (priority 1997, dated 2002).

One data set concerns Beet Armyworm larvae. As to the kind of experiment: Beet Armyworm control on potted rice plants using tebufenozide. Format: in vivo. From the text: Rice plants grown in pots were sprayed with one of two different versions of a 300 parts per million (based on active ingredient level) suspension of tebufenozide in water. In one version, the tebufenozide was supplied as Mimic® 10 W insecticide, a wettable powder, from Rohm and Haas Company. In the second version, approximately 30% by weight of the carrier in the Mimic® 10 W insecticide was replaced with Powder V from the above examples and approximately 10% by weight of the clay carrier was replaced by Aerosol®OTB surfactant. One portion of each of the sprayed plant samples was subjected to approximately 25 millimeters of water applied by a spray bar to simulate rain. The plants were cut and fed to Beet Armyworm larvae. Percent mortality was then evaluated.

For another data set, the system named is beet armyworm. As to the kind of experiment: Beet Armyworm control under field conditions on Chinese kale. Format: in vivo. The note with it: 300 g of tebufenozide per hectare, compared to untreated control plot. The protocol:
Each of two different plots of Chinese kale grown under typical field conditions was treated with one of the two tebufenozide formulations described above at an application rate of 300 g of tebufenozide per hectare in 750 liters of water per hectare. The percent beet armyworm mortality in each plot was compared to an untreated control plot.

The format of data set [1] is physicochemical. How it is done:
One method to evaluate the efficacy of a pesticide adjuvant is to measure its affect on the ability of the pesticide composition to resist wash-off from a surface. One skilled in the art will recognize that a pesticide which remains on the surface of a plant will be expected to have increased efficacy.
A suspension of the pesticide formulation was prepared by adding a premix of water and surfactant, with and without the polymer additives, followed by vigorous shaking of the mixtures by hand. Pieces of Parafilm™M laboratory film, a very soft, flexible, and hydrophobic film, were taped to plastic petrie dishes. The suspensions were sprayed with an automated sprayer as the petrie dishes with attached film were moved at a standard rate below the sprayer. The spray residues were allowed to dry, and a second application of spray was applied. One set of films was exposed, at an inclination of 45 degrees, to approximately 25 mm of water applied by a spray bar (equipped with TX-4 cone-type spray nozzles) that moved back and forth over the samples for a period of about 1 hour. The exposed films were allowed to dry. Another set of films was not exposed to water.
Infra-red spectra of the films were obtained by an Attenuated Total Reflection (ATR) technique. The films were pressed against a Zinc Selenide crystal that had been cleaned previously with methanol. Spectra were recorded with a Spectratech Allied Systems Fourier Transform Infra-Red Spectrometer, and stored in a computer. Peaks associated with pesticide residue were identified by inspection and peak areas were calculated by computer (Pesticide Peak Area, “PA”). A corresponding area for a Parafilm™ peak as similar as possible in peak location and size (in the same spectrum) was calculated (Film Peak Area, “FA”). […] A measure of the pesticide on the surface “P” was derived from the following calculation:
A relative measure of the amount of pesticide remaining after the above exposure to water was then derived from the following calculation: [formula]
Although the intensity of spectral peaks recorded with the ATR technique are very dependent on details of contact with the film, by obtaining a ratio of the pesticide peak to the film peak in the same spectral recording, different spectra can be compared with details of contact being compensated for, since they will have similar effects on the intensity of the pesticide absorption and the film absorption. The intensity of the pesticide peak relative to the film peak will depend on the degree of coverage of the film by the pesticide. To maximize coverage, the spraying was conducted twice. Furthermore, a wetting agent (surfactant) was included in the premix to promote wetting of the film by the spray droplets. Since exposure to water can result in re-distribution of the pesticide as well as wash-off of the pesticide, the measure of the amount remaining is only relative.
In all cases, a measured amount of pesticide was mixed with 270 grams of deionized water and 30 grams of 0.5% Silwet L-77 surfactant. This premix was divided into 50 gram portions. One portion was sprayed without adding polymer. For mixes containing polymer, 66.6 milligrams powder polymer or 1.32 g of a 5% solids dilution of the emulsion polymer were added to the 50 grams of premix.
TX-2 nozzle 12 inches above laboratory film.
58 psi (delivers 150 cc/minute).
Laboratory film moves at 1 mile/hour.
Fan nozzle 14 inches above laboratory film.
29 psi (Spray 15 cc with two passes over laboratory film at a rate to give 25 gallons/acre).

Molecules are shown by their SMILES. Read-outs that look alike come from different tables or passages of the source.

Take `CCc1ccc(C(=O)NN(C(=O)c2cc(C)cc(C)c2)C(C)(C)C)cc1` [tebufenozide]: the “Beet Armyworm Mortality (%)” value in the data set on Beet Armyworm larvae (With Rain (approximately 25 millimeters of water by spray bar), 300 parts per million suspension) is given as 28%; in the data set with Beet Armyworm larvae (Without Rain, rice plants sprayed with 300 parts per million suspension), 90%. Further, the “Beet Armyworm Control (%)” value in the data set with beet armyworm amounted to 35%. The “% AI Retained After One Inch Spray-Bar Rain, M (mean)” value in data set [1] (No Polymer) was 40%; in data set [1] (with Emulsion IV) it was 59%; in data set [1] (with Powder I), 71%; in data set [1] (with Powder II), 67%; in data set [1] (with Powder III) it was 40%.
